Patent US20260035403A1, “NUCLEOSIDE LINE-1 INHIBITORS” (TRANSPOSON THERAPEUTICS, INC., priority 2022, published 2026)

Test system: human LINE-1
Test: Human LINE-1 retrotransposition assay (HeLa cell-based dual-luciferase reporter)
Details: Homo sapiens, HeLa, 72 h, Human LINE-1 activity inhibition; HeLa cells, reporter plasmid pYX017, Firefly/Renilla, 72 h incubation
Procedure: Representative Compounds of the Disclosure were tested for inhibition of retrotransposition activity of human LINE-1 in HeLa cells according to the following procedure.
HeLa cervical cancer cells were cultivated at 37° C. in a humidified 5% CO2 incubator in Dulbecco's Modified Eagle's Medium (DMEM)—high glucose, with 4500 mg/L glucose, L-glutamine, sodium pyruvate and sodium bicarbonate (Sigma), supplemented with 10% of heat inactivated fetal bovine serum (Thermo Fisher).
Assays were performed using reporter plasmid pYX017 as described (Xie, et al., 2011) with several modifications. The reporter assay was performed in 96-well white optical bottom plates. HeLa cells were seeded in wells 24 h prior to transfection and compound treatment so that cells were approximately 30% confluent on the day of transfection. Different cell plating densities were tested and a density of 2×10^3 cells was determined to be optimal.
Compounds were resuspended in DMSO. Serial dilutions (1:3) were prepared in DMSO. Medium containing different concentrations of the compounds were prepared by adding 2 μl of the compound dilution to 1 ml of the culture medium. The final concentration of DMSO in the medium was 0.2%.
FuGENE® HD transfection reagent (Promega, E2311, Lot 382574 and Lot 397842) was used to transfect the plasmids into the cells. The transfection reagent: DNA mixture was prepared in OpiMEM (Thermo Fisher) according to manufacturer's instructions. Different ratios of transfection reagent to DNA were tested and a ratio of 3:1 was determined to be optimal. Culture medium was removed from the cells and discarded. The transfection reagent: DNA mixture (5 μl) was mixed with the compound containing medium (100 μl/well) and this was added onto the cells of each well. Cells were incubated at 37° C./5% CO2 for different incubation time. A 72 h incubation time was determined to be optimal.
Luciferase reporter activity was quantified with the Dual-Luciferase® Reporter Assay System (Promega) according to manufacturer's instructions for multiwell plates except that cells were lysed directly on the multiwell plate with 30 μl of the passive lysis buffer (PLB) for 20 min at room temperature, with gentle shaking to ensure complete cell lysis.
Firefly and Renilla luciferase signals were measured using a SpectraMax i3× Multi-Mode Microplate Reader. Integration times of 100 ms and 10 ms were used to measure the Firefly and Renilla signals respectively. Relative L1 activity is calculated as Firefly/Renilla*1000 or Firefly/Renilla*10,000. Dose response inhibition data were fit to a four parameter logistic equation using non-linear regression (using Graphpad Prism 8), to determine IC50 values for each inhibitor.

How did the IC50 turn out when `C#C[C@@]1(CO)C[C@@H](Sc2ccc(C)cc2)[C@H](n2cc(C)c(=O)[nH]c2=O)O1` [compound 26, 1-((2R,3R,5R)-5-ethynyl-5-(hydroxymethyl)-3-(p-tolylthio)tetrahydrofuran-2-yl)-5-methylpyrimidine-2,4(1H,3H)-dione] was run?
The IC50 was over 50 µM.

How did the IC50 turn out when `C#C[C@@]1(CO)C=C[C@H](n2cc(C3CC3)c(=O)[nH]c2=O)O1` [compound 27, 5-cyclopropyl-1-((2R,5R)-5-ethynyl-5-(hydroxymethyl)-2,5-dihydrofuran-2-yl)pyrimidine-2,4(1H,3H)-dione] was run?
Its IC50 is over 50 µM.

Which IC50 does the source give for `C#C[C@@]1(CO)C=C[C@H](n2cc(C(F)(F)F)c(=O)[nH]c2=O)O1` [compound 28, 1-((2R,5R)-5-ethynyl-5-(hydroxymethyl)-2,5-dihydrofuran-2-yl)-5-(trifluoromethyl)pyrimidine-2,4(1H,3H)-dione] here?
Its IC50 is over 12.5 µM.

`C#C[C@]1(CO)O[C@@H](n2cc(C)c(=O)[nH]c2=O)C[C@H]1O` [compound 29, 1-((2R,4R,5R)-5-ethynyl-4-hydroxy-5-(hydroxymethyl)tetrahydrofuran-2-yl)-5-methylpyrimidine-2,4(1H,3H)-dione] was tested. Which IC50 did it give?
The IC50 was over 50 µM.

For `C#C[C@@]1(CO)C=C[C@H](n2ccc(=O)[nH]c2=O)O1` [compound 30, 1-((2R,5R)-5-ethynyl-5-(hydroxymethyl)-2,5-dihydrofuran-2-yl)pyrimidine-2,4(1H,3H)-dione], which IC50 is on record?
The IC50 was 16 µM.

How did the IC50 turn out when `C#C[C@@]1(CO)C[C@@H](Sc2ccc(C)cc2)[C@H](n2ccc(=O)[nH]c2=O)O1` [compound 31, 1-((2R,3R,5R)-5-ethynyl-5-(hydroxymethyl)-3-(p-tolylthio)tetrahydrofuran-2-yl)pyrimidine-2,4(1H,3H)-dione] was run?
Its IC50 is over 50 µM.

Which IC50 does the source give for `C#C[C@]1(CO)O[C@H](n2ccc(N)nc2=O)C[C@@H]1O` [compound 32, 4-amino-1-((2S,4S,5R)-5-ethynyl-4-hydroxy-5-(hydroxymethyl)tetrahydrofuran-2-yl)pyrimidin-2(1H)-one] here?
The IC50 was 0.84 µM.

`C#C[C@@]1(CO)C=C[C@H](n2cc(C#N)c(=O)[nH]c2=O)O1` [compound 33, 1-((2R,5R)-5-ethynyl-5-(hydroxymethyl)-2,5-dihydrofuran-2-yl)-2,4-dioxo-1,2,3,4-tetrahydropyrimidine-5-carbonitrile] was tested. Which IC50 did it give?
The IC50 was over 12.5 µM.

For `C#C[C@@]1(CO)C=C[C@H](n2ccc3c(=O)[nH]cnc32)O1` [compound 34, 7-((2R,5R)-5-ethynyl-5-(hydroxymethyl)-2,5-dihydrofuran-2-yl)-3,7-dihydro-4H-pyrrolo[2,3-d]pyrimidin-4-one], which IC50 is on record?
Its IC50 is over 50 µM.

How did the IC50 turn out when `C#C[C@@]1(CO)C=C[C@H](n2cc(CC)c(=O)[nH]c2=O)O1` [compound 35, 5-ethyl-1-((2R,5R)-5-ethynyl-5-(hydroxymethyl)-2,5-dihydrofuran-2-yl)pyrimidine-2,4(1H,3H)-dione] was run?
The IC50 was over 50 µM.

`C#C[C@@]1(CO)C=C[C@H](n2cc(OC)c(=O)[nH]c2=O)O1` [compound 36, 1-((2R,5R)-5-ethynyl-5-(hydroxymethyl)-2,5-dihydrofuran-2-yl)-5-methoxypyrimidine-2,4(1H,3H)-dione] was tested. Which IC50 did it give?
Its IC50 is over 12.5 µM.

Which IC50 does the source give for `[2H]C([2H])([2H])c1cn([C@H]2C=C[C@@](C#C)(CO)O2)c(=O)[nH]c1=O` [compound 37, 1-((2R,5R)-5-ethynyl-5-(hydroxymethyl)-2,5-dihydrofuran-2-yl)-5-(methyl-d3)pyrimidine-2,4(1H,3H)-dione] here?
Its IC50 is 0.067 µM.

How did the IC50 turn out when `C#C[C@@]1(CO)C=C[C@H](n2cnc3cncnc32)O1` [compound 38, ((2R,5R)-2-ethynyl-5-(9H-purin-9-yl)-2,5-dihydrofuran-2-yl)methanol] was run?
The IC50 was over 50 µM.

How did the IC50 turn out when `C#C[C@@]1(CO)C=C[C@H](n2cnc3c(Cl)ncnc32)O1` [compound 39, ((2R,5R)-5-(6-chloro-9H-purin-9-yl)-2-ethynyl-2,5-dihydrofuran-2-yl)methanol] was run?
Its IC50 is over 50 µM.

How did the IC50 turn out when `C#C[C@@]1(CO)C=C[C@H](n2cc(F)c(N)nc2=O)O1` [compound 40, 4-amino-1-((2R,5R)-5-ethynyl-5-(hydroxymethyl)-2,5-dihydrofuran-2-yl)-5-fluoropyrimidin-2(1H)-one] was run?
Its IC50 is over 50 µM.

For `C#C[C@@]1(CO)C=C[C@H](n2cnc3c(OC)nc(Cl)nc32)O1` [compound 41, ((2R,5R)-5-(2-chloro-6-methoxy-9H-purin-9-yl)-2-ethynyl-2,5-dihydrofuran-2-yl)methanol], which IC50 is on record?
Its IC50 is over 50 µM.

`C#C[C@@]1(CO)C=C[C@H](n2cc(C)c(N)nc2=O)O1` [compound 42, 4-amino-1-((2R,5R)-5-ethynyl-5-(hydroxymethyl)-2,5-dihydrofuran-2-yl)-5-methylpyrimidin-2(1H)-one] was tested. Which IC50 did it give?
Its IC50 is over 50 µM.

With `C#C[C@]1(CO)OC(n2cc(C)c(=O)[nH]c2=O)C[C@@H]1O` (stereo partly drawn) [compound 43, 1-((4S,5R)-5-ethynyl-4-hydroxy-5-(hydroxymethyl)tetrahydrofuran-2-yl)-5-methylpyrimidine-2,4(1H,3H)-dione] as the compound, how does the IC50 read?
The IC50 was 0.876 µM.

How did the IC50 turn out when `C#C[C@]1(CO)OC(n2cc(Br)c(=O)[nH]c2=O)C[C@@H]1O` (stereo partly drawn) [compound 44, 5-bromo-1-((4S,5R)-5-ethynyl-4-hydroxy-5-(hydroxymethyl)tetrahydrofuran-2-yl)pyrimidine-2,4(1H,3H)-dione] was run?
The IC50 was 2.2 µM.

For `C#C[C@]1(CO)OC(n2cc(F)c(=O)[nH]c2=O)C[C@@H]1O` (stereo partly drawn) [compound 45, 1-((4S,5R)-5-ethynyl-4-hydroxy-5-(hydroxymethyl)tetrahydrofuran-2-yl)-5-fluoropyrimidine-2,4(1H,3H)-dione], which IC50 is on record?
Its IC50 is 3.81 µM.

For `C#C[C@]1(CO)OC(n2cc(C)c(N)nc2=O)C[C@@H]1O` (stereo partly drawn) [compound 46, 4-amino-1-((4S,5R)-5-ethynyl-4-hydroxy-5-(hydroxymethyl)tetrahydrofuran-2-yl)-5-methylpyrimidin-2(1H)-one], which IC50 is on record?
Its IC50 is over 50 µM.

For `Cc1cn([C@H]2C=C[C@](CO)(C3CC3)O2)c(=O)[nH]c1=O` [compound 47, 1-((2R,5S)-5-cyclopropyl-5-(hydroxymethyl)-2,5-dihydrofuran-2-yl)-5-methylpyrimidine-2,4(1H,3H)-dione], which IC50 is on record?
Its IC50 is over 25 µM.

Which IC50 does the source give for `COC[C@@]1(CO)C=C[C@H](n2cc(C)c(=O)[nH]c2=O)O1` [compound 48, 1-((2R,5S)-5-(hydroxymethyl)-5-(methoxymethyl)-2,5-dihydrofuran-2-yl)-5-methylpyrimidine-2,4(1H,3H)-dione] here?
Its IC50 is over 50 µM.

With `C#C[C@]1(CO)O[C@H](n2cnc3c(=O)[nH]c(N)nc32)C[C@@H]1O` [compound 49, 2-amino-9-((2S,48,5R)-5-ethynyl-4-hydroxy-5-(hydroxymethyl)tetrahydrofuran-2-yl)-1,9-dihydro-6H-purin-6-one] as the compound, how does the IC50 read?
Its IC50 is 0.052 µM.

How did the IC50 turn out when `C#C[C@]1(CO)O[C@H](n2cc(C)c(=O)[nH]c2=O)C[C@@H]1O` [compound 50, 1-((2S,4S,5R)-5-ethynyl-4-hydroxy-5-(hydroxymethyl)tetrahydrofuran-2-yl)-5-methylpyrimidine-2,4(1H,3H)-dione] was run?
Its IC50 is 25.5 µM.

How did the IC50 turn out when `C#C[C@]1(CO)OC(n2ccc(=O)[nH]c2=O)C[C@@H]1O` (stereo partly drawn) [compound 51, 1-((4S,5R)-5-ethynyl-4-hydroxy-5-(hydroxymethyl)tetrahydrofuran-2-yl)pyrimidine-2,4(1H,3H)-dione] was run?
The IC50 was 5.08 µM.

Which IC50 does the source give for `C#C[C@]1(CO)OC(n2cc(C3CC3)c(=O)[nH]c2=O)C[C@@H]1O` (stereo partly drawn) [compound 52, 5-cyclopropyl-1-((4S,5R)-5-ethynyl-4-hydroxy-5-(hydroxymethyl)tetrahydrofuran-2-yl)pyrimidine-2,4(1H,3H)-dione] here?
The IC50 was over 50 µM.
